“Also recorded” adds a separate entry of the source.
What was measured:
[1] = Plasma exposure of compound S-D1 after the last dose; assay type: in vivo, mice
Protocol: The objective of this study was to provide proof-of-concept of anti-tumor efficacy with intermittent dosing schedules for compound S-D1 by IV administration. Groups of female SYO-1 tumor-bearing NOD SCID mice (n=10/group) were dosed IV with vehicle, compound D1 or compound S-D1 for 24 days according to treatments and dosing schedules shown in Table 10. Compound D1 was formulated in 10% DMSO/40% PEG400/50% water and compound S-D1 was formulated in 20% SBECD in 5 mM citrate buffer, final pH was adjusted to 5 with 1 N NaOH. For the compound S-D1 treatment groups, plasma samples were collected at designated time points following the last dosing. Plasma samples were acidified to stabilize the compound right after collection and analyzed for compound S-D1 concentrations.

endogenous BRD9 = target: T1, endogenous BRD9 (Homo sapiens, UniProt Q9H8M2); assay: MSD assay of endogenous BRD9 degradation in synovial sarcoma cell lines; assay type: cell-based; details: 6 hours, estimated from racemate compound D1 (about 50% active enantiomer)
T1 sequence (Q9H8M2 1-597): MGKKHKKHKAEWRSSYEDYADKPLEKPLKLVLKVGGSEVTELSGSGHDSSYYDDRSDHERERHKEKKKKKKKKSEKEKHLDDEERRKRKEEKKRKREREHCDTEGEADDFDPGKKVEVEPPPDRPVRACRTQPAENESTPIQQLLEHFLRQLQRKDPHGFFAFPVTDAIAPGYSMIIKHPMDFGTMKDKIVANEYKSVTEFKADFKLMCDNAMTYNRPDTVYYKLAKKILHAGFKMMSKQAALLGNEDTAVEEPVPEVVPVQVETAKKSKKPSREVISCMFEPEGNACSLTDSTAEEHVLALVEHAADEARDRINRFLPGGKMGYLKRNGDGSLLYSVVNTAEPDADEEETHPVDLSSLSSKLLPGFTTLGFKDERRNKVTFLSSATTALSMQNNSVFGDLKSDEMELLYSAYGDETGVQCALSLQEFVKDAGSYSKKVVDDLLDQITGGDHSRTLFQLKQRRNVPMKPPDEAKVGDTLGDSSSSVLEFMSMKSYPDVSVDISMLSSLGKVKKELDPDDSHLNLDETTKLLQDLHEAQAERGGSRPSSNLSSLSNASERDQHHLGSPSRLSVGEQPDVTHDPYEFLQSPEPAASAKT

BRD9 [2] = target: T2, BRD9 (Homo sapiens, UniProt Q9H8M2); assay: BRD9 degradation in synovial sarcoma tumor in vivo (western blot); set-up: from tissue; host or cells: SYO-1 xenograft tumours in BALB/c nude or NOD SCID mice; species or system mice; details: 1 mg/kg i.p. for 4 weeks; up to 168 hours after dose
T2 sequence (Q9H8M2 1-597): T1 sequence (Q9H8M2 1-597)
Protocol: Method: Mice were treated with D1, 1 mg/kg, i.p. for 4 weeks. Mice were then euthanized, and tumors were collected at 8 hours, 72 hours, and 168 hours post last dose. Tumors were lysed with 1×RIPA lysis buffer (Boston BioProducts, BP-115D) with protease and phosphatase protein inhibitor (Roche Applied Science #04906837001 & 05892791001). Equal amounts of lysate (30 ug) were loaded in 4-12% Bis-Tris Midi Protein Gels in 1×MOPS buffer; samples ran at 120 V for 120 minutes. Protein was transferred to membrane with TransBlot at 250 mA for 150 minutes, and then membranes were blocked with Odyssey blocking buffer for 1 hour at room temperature. Membranes were hybridized overnight in cold room with primary antibodies. Images acquired using Li-COR imaging system (Li-COR Biotechnology, Lincoln, Nebraska).

BRD9 [3] = target: T2, BRD9; assay: Drug washout experiments in SYO-1, ASKA and OCI-AML2 cell lines; details: followed by washout
Protocol: Drug Washout Experiments in SYO-1, ASKA, and OCI-AML2 Cell Lines. To assess the duration of BRD9 protein degradation and recovery post-drug washout, extensive washout experiments were conducted in three cell lines and BRD9 protein levels were assessed through western blot analyses. SYO-1 and ASKA are adherent synovial sarcoma cell lines. OCI-AML2 is an acute myeloid leukemia suspension cell line.
Adherent cells, SYO-1 and ASKA, grown in flasks to log phase growth, were washed with PBS and dissociated by adding TrypLE™ Express.
SYO-1 cells counted and seeded into 6-well plates at a density of 0.5×10^6 cells per well in 2 mL cell culture medium. Two wells were allocated per sample. Plates were incubated at 37° C. with 5% CO2 overnight. […] After 6 hours of incubation, 1×10^6 cells or 2 wells per treated group were harvested and frozen down at −80° C. for the 6-hour treatment sample. The remainder of the compound treated wells were washed four times by replacing all the drug-treated media with an equal volume of fresh media. After the final wash step, cells were incubated in 2 mL fresh media at 37° C. with 5% CO2 for the time points indicated. Washout steps were not performed on wells treated with 0.1% DMSO and cells were harvested at the time indicated.
Two wells were allocated per sample. Plates were incubated at 37° C. with 5% CO2 overnight. […]

[4] = test system: SYO-1 human biphasic synovial sarcoma tumor; assay: SYO-1 synovial sarcoma xenograft efficacy, daily i.p. dosing; assay type: in vivo; details: 1 mg/kg i.p. daily, 3 weeks; NOD SCID mice
Protocol: Method: NOD SCID mice (Beijing Anikeeper Biotech, Beijing) were inoculated subcutaneously on the right flank with the single cell suspension of SYO-1 human biphasic synovial sarcoma tumor cells (5×106) in 100 μL Dulbecco's Modified Eagle Medium (DMEM) with 10% fetal bovine serum (FBS). The mice were randomized into either control group [10% dimethyl sulfoxide (DMSO), 40% polyethylene glycol (PEG400) and 50% water], or treatment group D1 when the mean tumor size reached about 117 mm^3. Mice were dosed daily through intraperitoneal (i.p.) route over the course of 3 weeks. All dose volumes were adjusted by body weights in terms of mg/kg.

SMILES | exposure in plasma versus dose ([1]; from 0.05 to […] IV) | exposure in plasma versus dose ([1]; from 0.25 to 2 mg/kg IV) | DC50 (endogenous BRD9) [nM] | degradation of BRD9 in tumor (BRD9 [2]) | continued BRD9 depletion after washout (BRD9 [3]; ASKA and OCI-AML2 cells, 15.6 nM for 6 h) | BRD9 depletion after washout (BRD9 [3]; SYO-1 cells treated with 15.6 nM for 6 h) | tumor growth inhibition [4]
COc1cc(-c2cn(C)c(=O)c3cnc(N4CCC4)cc23)cc(OC)c1CN1CCC(CN2CCC3(CC2)CN(c2ccc4c(c2)C(=O)N([C@H]2CCC(=O)NC2=O)C4)C3)CC1 (single isomer, unassigned) [Compound S-D1] | increased more than proportionally to dose | slightly less than proportionally to dose | 0.025 to 0.1 | – | – | – | –
COc1cc(-c2cn(C)c(=O)c3cnc(N4CCC4)cc23)cc(OC)c1CN1CCC(CN2CCC3(CC2)CN(c2ccc4c(c2)C(=O)N(C2CCC(=O)NC2=O)C4)C3)CC1 (racemic) [Compound D1, 3-[6-(7-[[1-([4-[6-(azetidin-1-yl)-2-methyl-1-oxo-2,7-naphthyridin-4-yl]-2,6-dimethoxyphenyl]methyl)piperidin-4-yl]methyl]-2,7-diazaspiro[3.5]nonan-2-yl)-1-oxo-3H-isoindol-2-yl]piperidine-2,6-dione] | – | – | – | complete degradation of BRD9 target; also recorded: BRD9 inhibition | reproduced | continued depletion of BRD9 up to 7 days | tumor growth inhibition

Reference: patent publication US20240325370A1, “THERAPEUTIC REGIMENS OF A DEGRADER OF BRD9” (FOGHORN THERAPEUTICS INC., priority 2021, published 2024)
